Test results: patent publication US10611727B2, “1-[1-(benzoyl)-pyrrolidine-2-carbonyl]-pyrrolidine-2-carbonitrile derivatives” (UNIVERSITAT DE BARCELONA, priority 2012, dated 2020)

How the values were obtained:
[1] = Parallel artificial membrane permeability assay (PAMPA), porcine polar brain lipid extract; format: in vitro ADME; conditions: 200 μM, pH 7.4, 4 hours
Method: Parallel artificial membrane permeability assay (PAMPA) described in Kansy M et al., J. Med. Chem. 1998; […]:1007-10 was used to determine the capacity of compounds to cross the Blood-Brain Barrier (BBB) by passive diffusion (Di L et al., Eur. J. Med. Chem. 2003; 38(3):223-32). The effective permeability (Pe) of the compounds was measured at an initial concentration of 200 μM. The buffer solution was prepared from a commercial concentrated one following the manufacturer's instructions. pH was adjusted to 7.4 using a 0.5 M NaOH solution. A stock solution of new compound was prepared in DMSO and diluted with buffer solution to a final 200 μM concentration (0.5% DMSO content). The PAMPA sandwich was separated and each donor well was filled with 200 μL of the compound solution. […] After 4 hours, the contents of the acceptor and donor compartments were analyzed by HPLC: 150 μL of each well from the donor plate and 150 μL of each well from the acceptor plate were transferred to HPLC vials, injecting each sample into a reverse-phase C18 column (150 mm×4.6 mm×5 μm, 100 Å) (100 μL/injection from the acceptor wells, 10 μL/injection from the donor wells and for t0 references). […]
The effective permeability (Pe) after 4 hours was calculated using equation 2 and the percentage of transport was calculated using equation 3: […]

[2] = test system: MK-801-induced memory impairment; assay: Passive avoidance task, MK-801 cognition impairment model; format: in vivo, rodents (mice or rats); conditions: s.c. 35 min before shock session; MK-801 i.p. 15 min later; FIG. 2
Method: The new compounds were evaluated for their efficacy as cognition enhancers in a pharmacological model for cognitive impairment. The effects of the new compounds were evaluated in untreated and MK-801-treated rodents (mice or rats). MK-801 is a non-competitive antagonist of the N-Methyl-D-aspartate (NMDA) receptor which impairs animal performance in various learning and memory paradigms (Castellano C et al., Curr. Drug Targets 2001; 2:273-83; Riedel G et al., Behav. Brain Res. 2003; 140:1-47). MK-801 also produces various effects on rodent behavior, including deficits in sensory processing, hypermotility, stereotypy and ataxia. […]
For the evaluation of the passive avoidance task, a two-compartment box with a light compartment and a dark compartment of the same dimensions was used. […] In the evaluation session, the time which the animal takes to enter the dark compartment (in seconds) was measured, as a sign of memory retention of the shock received in the dark compartment during the previous session. […] The corresponding evaluated compound was injected s.c. 35 min before the shock session, followed 15 minutes later by i.p. injection of MK-801, or PBS in the case of the control, in the same doses and volume as described for the object recognition test.

[3] = molecular target: human prolyl oligopeptidase (Homo sapiens (Human), UniProt P48147); assay: POP inhibition assay (Z-G-P-AMC substrate, fluorimetric); format: biochemical; conditions: 100 mM Na/K phosphate buffer pH 8.0, hPOP 20 to 60 nM
Chain of human prolyl oligopeptidase (P48147 whole entry): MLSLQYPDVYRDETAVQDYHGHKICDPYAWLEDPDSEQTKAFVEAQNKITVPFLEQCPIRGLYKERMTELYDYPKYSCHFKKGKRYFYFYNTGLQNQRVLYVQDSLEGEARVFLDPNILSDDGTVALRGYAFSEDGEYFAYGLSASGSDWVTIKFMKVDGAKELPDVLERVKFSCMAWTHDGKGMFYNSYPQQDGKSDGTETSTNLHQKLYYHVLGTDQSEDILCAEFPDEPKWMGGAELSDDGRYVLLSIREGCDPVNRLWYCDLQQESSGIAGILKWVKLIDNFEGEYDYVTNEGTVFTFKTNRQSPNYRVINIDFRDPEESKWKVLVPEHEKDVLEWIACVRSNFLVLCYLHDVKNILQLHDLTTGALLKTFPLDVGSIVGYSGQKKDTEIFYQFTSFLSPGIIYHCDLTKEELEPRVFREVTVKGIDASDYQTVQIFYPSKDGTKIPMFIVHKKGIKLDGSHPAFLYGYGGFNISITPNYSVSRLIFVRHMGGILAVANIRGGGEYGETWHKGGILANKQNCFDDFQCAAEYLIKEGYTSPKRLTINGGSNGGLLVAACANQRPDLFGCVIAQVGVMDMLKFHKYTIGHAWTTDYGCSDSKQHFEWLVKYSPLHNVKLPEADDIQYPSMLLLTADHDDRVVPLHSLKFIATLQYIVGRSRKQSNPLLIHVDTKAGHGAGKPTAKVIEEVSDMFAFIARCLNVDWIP
Method: hPOP expression: E. coli BL21 competent cells were transformed with pETM10 hPOP. To induce expression, a pre-culture of LB medium (50 mL) containing kanamycin (50 μg/mL) was inoculated with one colony and was grown overnight at 37° C., Next day, two cultures of LB medium (500 ml) were inoculated with the overnight culture (10 mL). The inoculated cultures were grown at 37° C. and 220 rpm until the OD595 was 1.2 (2.5-3 hours). […] The column was washed with suspension buffer until the absorbance at 280 nm returned to basal level. […] POP activity was checked in all fractions and positive ones were analyzed by SDS-PAGE and stained with Biosafe Comassie Stain G-250. […] Recombinant hPOP was quantified with the Bio-Rad Protein Assay with BSA as standard, Aliquots of the recombinant enzyme were prepared and immediately frozen with liquid nitrogen and stored at −80° C.
POP activity was determined following the method described by Toide et al (Toide K et al., J. Pharmacol. Exp. Ther. 1995; 274:1370-8), using Z-G-P-AMC (N-benzyloxycarbonyl-Gly-Pro-methylcoumarinyl-7-amide) as POP substrate. […]
After preincubation, Z-G-P-AMC (10 μl, 3 mM in 40% 1,4-dioxane) was added (3 μL 1.5 mM in 40% of 1,4-dioxane, in Conditions B), and the reaction was incubated for 1 hour at 37° C. The reaction was stopped by adding sodium acetate (150 μl, 1 M, pH 4) and the formation of AMC was measured fluorimetrically. […]

COc1cc(C(=O)N2C[C@H](OC)C[C@H]2C(=O)N2CCC[C@H]2C#N)cc(OC)c1OCc1ccccc1 [Example 1, (S)-1-((2S,4R)-1-(4-(benzyloxy)-3,5-dimethoxybenzoyl)-4-methoxypyrrolidine-2-carbonyl)pyrrolidine-2-carbonitrile]
% T (percentage of transport) [1]: 4.3%

COc1cc(C(=O)N2CC(F)(F)C[C@H]2C(=O)N2CCC[C@H]2C#N)cc(OC)c1OCc1ccccc1 [Example 4, (S)-1-((2S)-1-(4-(benzyloxy)-3,5-dimethoxybenzoyl)-4,4-difluoropyrrolidine-2-carbonyl)pyrrolidine-2-carbonitrile]
Reversal of MK-801-induced memory impairment in the passive avoidance test [2]: able to reverse MK-801-induced memory Impairment

COc1cc(C(=O)N2CC(F)(F)C[C@H]2C(=O)N2CCC[C@H]2C#N)cc(OCc2ccccc2)c1OCc1ccccc1 [Example 13, (S)-1-((2S)-1-(3,4-dibenzyloxy-5-methoxybenzoyl)-4,4-difluoropyrrolidine-2-carbonyl)pyrrolidine-2-carbonitrile]
IC50 [3]: 336 nM
